Experimental data taken from patent US8563714B2, “Bridged spiro [2.4] heptane derivatives as ALX receptor and/or FPRL2 agonists” (Actelion Pharmaceuticals Ltd., priority 2009, dated 2013).

Legend:
human FPRL2 = molecular target: T1, human FPRL2 (Homo sapiens, UniProt P25089); experiment: Intracellular calcium measurements (FLIPR), agonistic activity in HEK293-hFPRL2-Gα16 cells; assay type: cell-based; settings: Fluo-4 calcium FLIPR, normalized to GLY14-Humanin 100 nM
T1 construct: expressed in transfected cells; host or cells: HEK293 (HEK293-hFPRL2-Gα16)
T1 sequence (P25089 1-353): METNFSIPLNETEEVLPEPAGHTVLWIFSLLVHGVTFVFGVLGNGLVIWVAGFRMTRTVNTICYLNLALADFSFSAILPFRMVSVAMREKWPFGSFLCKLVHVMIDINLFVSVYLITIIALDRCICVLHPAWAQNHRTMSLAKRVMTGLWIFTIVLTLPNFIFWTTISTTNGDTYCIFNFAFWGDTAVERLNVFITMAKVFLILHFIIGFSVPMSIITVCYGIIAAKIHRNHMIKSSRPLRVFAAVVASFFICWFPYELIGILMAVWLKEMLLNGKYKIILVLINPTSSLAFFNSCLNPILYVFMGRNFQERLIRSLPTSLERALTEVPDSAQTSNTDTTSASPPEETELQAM
In short: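 Peak values after baseline subtraction are expressed relative to 100 nM Gly14-Humanin; compounds diluted in assay buffer from 10 mM DMSO stocks.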

human ALX receptor = molecular target: T2, human ALX receptor (Homo sapiens, UniProt P25090); experiment: Intracellular calcium measurements (FLIPR), agonistic activity in HEK293-hALXR-Gα16 cells; assay type: cell-based; settings: Fluo-4 calcium FLIPR, normalized to WKYMVm 10 nM
T2 construct: expressed in transfected cells; host or cells: HEK293 (HEK293-hALXR-Gα16)
T2 sequence (P25090 1-351): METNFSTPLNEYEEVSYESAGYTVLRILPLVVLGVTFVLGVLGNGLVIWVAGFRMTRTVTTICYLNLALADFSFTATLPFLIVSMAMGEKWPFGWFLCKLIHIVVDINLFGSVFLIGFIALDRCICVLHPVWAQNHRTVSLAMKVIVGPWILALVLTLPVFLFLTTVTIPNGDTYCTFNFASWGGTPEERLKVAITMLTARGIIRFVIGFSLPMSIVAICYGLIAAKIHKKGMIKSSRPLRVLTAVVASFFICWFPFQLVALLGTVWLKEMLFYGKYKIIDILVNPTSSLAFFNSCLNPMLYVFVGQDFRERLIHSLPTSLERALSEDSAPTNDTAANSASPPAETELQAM
In short: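 HEK293 cells expressing hALXR and Gα16 were loaded with 1 μM Fluo-4 AM and 20 mM HEPES for 60 min at 37°C, then exposed to serially diluted compound. FLIPR fluorescence was read at ex 488/em 540 nm. Baseline-subtracted peak responses were normalized to 10 nM WKYMVm.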

SMILES	EC50 (human FPRL2) [nM]	EC50 (human ALX receptor) [nM]
O=C(NCCCCN1CCCC1)[C@H]1[C@H](C(=O)NCc2cc(F)cc(C(F)(F)F)c2)[C@@H]2C=C[C@H]1C21CC1 (racemic) [Example 362, (5R*)—N^5-(3-Fluoro-5-trifluoromethylphenyl-methyl)-(6R*)—N^6-(4-pyrrolidino-butyl)-(4S*,7R*)-[4,7-ethenylene-spiro[2.4]heptane]-5,6-dicarboxamide]	306	9090
CC(=O)c1ccc(CNC(=O)[C@H]2[C@H](C(=O)NCCCCN3CCCC3)[C@H]3C=C[C@@H]2C32CC2)cc1 (racemic) [Example 363, (5R*)—N^5-(4-Acetylphenyl-methyl)-(6R*)—N^6-(4-pyrrolidino-butyl)-(4S*,7R*)-[4,7-ethenylene-spiro[2.4]heptane]-5,6-dicarboxamide]	570	9740
O=C(NCCCCN1CCCC1)[C@H]1[C@H](C(=O)NCc2cc(C(F)(F)F)ccc2Cl)[C@@H]2C=C[C@H]1C21CC1 (racemic) [Example 364, (5R*)—N^5-(2-Chloro-5-trifluoromethylphenyl-methyl)-(6R*)—N^6-(4-pyrrolidino-butyl)-(4S*,7R*)-[4,7-ethenylene-spiro[2.4]heptane]-5,6-dicarboxamide]	372	9970
O=C(NCCCCN1CCCC1)[C@H]1[C@H](C(=O)NCc2cc(C(F)(F)F)ccc2F)[C@@H]2C=C[C@H]1C21CC1 (racemic) [Example 365, (5R*)—N^5-(2-Fluoro-5-trifluoromethylphenyl-methyl)-(6R*)—N^6-(4-pyrrolidino-butyl)-(4S*,7R*)-[4,7-ethenylene-spiro[2.4]heptane]-5,6-dicarboxamide]	350	9970
O=C(NCCCCN1CCCC1)[C@H]1[C@H](C(=O)NCc2cc(Cl)nc(Cl)c2)[C@@H]2C=C[C@H]1C21CC1 (racemic) [Example 367, (5R*)—N^5-[(2,6-Dichloropyridin-4-yl)methyl]-(6R*)—N^6-(4-pyrrolidino-butyl)-(4S*,7R*)-[4,7-ethenylene-spiro[2.4]heptane]-5,6-dicarboxamide]	644	10600
Cc1nc(NC(=O)[C@H]2[C@H](C(=O)NCCCCN3CCCC3)[C@H]3C=C[C@@H]2C32CC2)sc1C (racemic) [Example 369, (5R*)—N^5-(4,5-Dimethyl-thiazol-2-yl)-(6R*)—N^6-(4-pyrrolidino-butyl)-(4S*,7R*)-[4,7-ethenylene-spiro[2.4]heptane]-5,6-dicarboxamide]	204	> 25000
O=C(NCCCCN1CCCC1)[C@H]1[C@H](C(=O)NCc2c(F)ccc(F)c2Cl)[C@@H]2C=C[C@H]1C21CC1 (racemic) [Example 371, (5R*)—N^5-(2-Chloro-3,6-difluorophenyl-methyl)-(6R*)—N^6-(4-pyrrolidino-butyl)-(4S*,7R*)-[4,7-ethenylene-spiro[2.4]heptane]-5,6-dicarboxamide]	271	> 25000
CC(C)Oc1ccccc1CNC(=O)[C@H]1[C@H](C(=O)NCCCCN2CCCC2)[C@H]2C=C[C@@H]1C21CC1 (racemic) [Example 372, (5R*)—N^5-(2-Isopropoxyphenyl-methyl)-(6R*)—N^6-(4-pyrrolidino-butyl)-(4S*,7R*)-[4,7-ethenylene-spiro[2.4]heptane]-5,6-dicarboxamide]	389	> 25000
Cc1ccc(F)c(CNC(=O)[C@H]2[C@H](C(=O)NCCCCN3CCCC3)[C@H]3C=C[C@@H]2C32CC2)c1Cl (racemic) [Example 373, (5R*)—N^5-(2-Chloro-6-fluoro-3-methylphenyl-methyl)-(6R*)—N^6-(4-pyrrolidino-butyl)-(4S*,7R*)-[4,7-ethenylene-spiro[2.4]heptane]-5,6-dicarboxamide]	478	> 25000
COc1ccc(CNC(=O)[C@H]2[C@H](C(=O)NCCCCN3CCCC3)[C@H]3C=C[C@@H]2C32CC2)c(OC)c1 (racemic) [Example 376, (5R*)—N^5-(2,4-Dimethoxyphenyl-methyl)-(6R*)—N^6-(4-pyrrolidino-butyl)-(4S*,7R*)-[4,7-ethenylene-spiro[2.4]heptane]-5,6-dicarboxamide]	334	10300

Now from value to molecule:

EC50 (human FPRL2) [nM]	EC50 (human ALX receptor) [nM]	SMILES
366	10000	O=C(NCCCCN1CCCC1)[C@H]1[C@H](C(=O)NCc2ccc(F)c(C(F)(F)F)c2)[C@@H]2C=C[C@H]1C21CC1 (racemic) [Example 366, (5R*)—N^5-(4-Fluoro-3-trifluoromethylphenyl-methyl)-(6R*)—N^6-(4-pyrrolidino-butyl)-(4S*,7R*)-[4,7-ethenylene-spiro[2.4]heptane]-5,6-dicarboxamide]
255	11100	Cc1ccc(C)c(CNC(=O)[C@H]2[C@H](C(=O)NCCCCN3CCCC3)[C@H]3C=C[C@@H]2C32CC2)c1 (racemic) [Example 368, (5R*)—N^5-(2,5-Dimethylphenyl-methyl)-(6R*)—N^6-(4-pyrrolidino-butyl)-(4S*,7R*)-[4,7-ethenylene-spiro[2.4]heptane]-5,6-dicarboxamide]
180	> 25000	COc1ccc(C)cc1CNC(=O)[C@H]1[C@H](C(=O)NCCCCN2CCCC2)[C@H]2C=C[C@@H]1C21CC1 (racemic) [Example 370, (5R*)—N^5-(2-Methoxy-5-methylphenyl-methyl)-(6R*)—N^6-(4-pyrrolidino-butyl)-(4S*,7R*)-[4,7-ethenylene-spiro[2.4]heptane]-5,6-dicarboxamide]
237	2620	COc1ccc(CNC(=O)[C@H]2[C@H](C(=O)NCCCCN3CCCC3)[C@H]3C=C[C@@H]2C32CC2)cc1Cl (racemic) [Example 374, (5R*)—N^5-(3-Chloro-4-methoxyphenyl-methyl)-(6R*)—N^6-(4-pyrrolidino-butyl)-(4S*,7R*)-[4,7-ethenylene-spiro[2.4]heptane]-5,6-dicarboxamide]
443	9050	COc1ccc(CNC(=O)[C@H]2[C@H](C(=O)NCCCCN3CCCC3)[C@H]3C=C[C@@H]2C32CC2)cc1OC (racemic) [Example 375, (5R*)—N^5-(3,4-Dimethoxyphenyl-methyl)-(6R*)—N^6-(4-pyrrolidino-butyl)-(4S*,7R*)-[4,7-ethenylene-spiro[2.4]heptane]-5,6-dicarboxamide]
417	> 25000	COc1ccc(CCNC(=O)[C@H]2[C@H](C(=O)NCCCCN3CCCC3)[C@H]3C=C[C@@H]2C32CC2)cc1OC (racemic) [Example 377, (5R*)—N^5-(2-(3,4-Dimethoxyphenyl)ethyl)-(6R*)—N^6-(4-pyrrolidino-butyl)-(4S*,7R*)-[4,7-ethenylene-spiro[2.4]heptane]-5,6-dicarboxamide]
74	8610	COc1ccc(CCNC(=O)[C@H]2[C@H](C(=O)NCCCCN3CCCC3)[C@H]3C=C[C@@H]2C32CC2)cc1 (racemic) [Example 378, (5R*)—N^5-(2-(4-Methoxyphenyl)ethyl)-(6R*)—N^6-(4-pyrrolidino-butyl)-(4S*,7R*)-[4,7-ethenylene-spiro[2.4]heptane]-5,6-dicarboxamide]
6.6	8810	O=C(NCCCCN1CCCC1)[C@H]1[C@H](C(=O)NCCc2ccc(Br)cc2)[C@@H]2C=C[C@H]1C21CC1 (racemic) [Example 379, (5R*)—N^5-(2-(4-Bromophenyl)ethyl)-(6R*)—N^6-(4-pyrrolidino-butyl)-(4S*,7R*)-[4,7-ethenylene-spiro[2.4]heptane]-5,6-dicarboxamide]
103	> 25000	Cc1ccc(CCNC(=O)[C@H]2[C@H](C(=O)NCCCCN3CCCC3)[C@H]3C=C[C@@H]2C32CC2)cc1C (racemic) [Example 380, (5R*)—N^5-(2-(3,4-Dimethylphenyl)ethyl)-(6R*)—N^6-(4-pyrrolidino-butyl)-(4S*,7R*)-[4,7-ethenylene-spiro[2.4]heptane]-5,6-dicarboxamide]
29	7680	O=C(NCCCCN1CCCC1)[C@H]1[C@H](C(=O)NCCc2ccc3c(c2)OCO3)[C@@H]2C=C[C@H]1C21CC1 (racemic) [Example 383, (5R*)—N^5-(2-(Benzo[d][1,3]dioxol-5-yl)ethyl)-(6R*)—N^6-(4-pyrrolidino-butyl)-(4S*,7R*)-[4,7-ethenylene-spiro[2.4]heptane]-5,6-dicarboxamide]
